Reference: patent US10933068B2, “Modulators of DUX4 for regulation of muscle function” (GENEA BIOCELLS USA (HOLDINGS), INC., priority 2016, dated 2021)
pEC50: −log10 of the molar value. Each block holds one compound with its values, some of them ahead of it.

Experiments:
[1] = test system: FSHD-affected Gen049 human Embryonic Stem Cells (hESCs); assay: ASK10 cytotoxicity in DUX4-GFP induction experiments; assay type: cell-based; conditions: FIG. 11A cited
Description: Precursors were then converted to myoblasts by culture in Stage 2 Medium for 7 days with media changes every second day until confluence. […] After treatment, confluent myoblasts were switched to Stage 3 Myotube Medium (Genea Biocells). Cells were imaged hourly for phase and DUX4-GFP reporter fluorescence with the Incucyte live cell imaging system (Essen Bioscience) and Incucyte analysis software reported GFP+ events/mm2. […] Nuclei were quantified using the In Cell 6000 imaging and analysis suite.

[2] = test system: Normal cell lines (Genea 002 and Genea 015) and an FSHD-affected cell line (Genea 096); assay: Phenotypic marker screen (Example 2): cell count / toxicity; assay type: cell-based, human; conditions: compound added for 24 hours; for toxicity (cell count): analyzed at the end of the myotube stage, cell lines tested overall
Description: (§1) Briefly, stem cell lines were cultured in commercially available media, mTeSR (Stem Cell Technologies) or M2 (Genea Biocells) and dissociated into single cells using Passaging Solution (Genea Biocells). Cells were plated in Myogenic Induction Medium to induce myogenic differentiation and incubated at 37° C. and 5% CO2 for 7 to 10 days while performing media changes every other day. Once confluent, cells were dissociated into single cells using Passaging Solution and replated in Myoblast Medium (Genea Biocells) while performing media changes every other day. After 7-10 days the medium was switched to Myotube Medium (Genea Biocells) without any further media changes.
In one example, experiments are set up according to Example 1 with cells being cultured in collagen 1-coated optical bottom 96-well plates. At the end of the culture period cells are fixed with 4% formalin and immunofluorescence stained for DUX4, Ki67, MyoD and/or MF20 or MHC. […] Staining with MF20 or MHC is used to visualize myotube morphology. High-content screening is performed to quantitatively measure the proportion of DUX4, Ki67 and MyoD-positive cells as well as myotube diameter and the number of nuclei per myotube.
(§2) Normal cell lines (Genea 002 and Genea 015) and an FSHD-affected cell line (Genea 096) were cultured and differentiated according to Example 1. Compounds were added for 24 hours either at the beginning of the myoblast stage or at the end of the myoblast stage. Cells were further differentiated to myotubes and analyzed 7 days later at the end of the myotube stage (see FIG. 2) by immunofluorescence staining for MyoD, Ki67 and MF20.

[3] = test system: normal (Genea016) and FSHD-affected (Genea049 and Genea050) cell lines; assay: Timing of compound contact: cell counts; assay type: cell-based, human
Description: as §1, with “changes. After 4-7 days many multi-nucleated myotubes were observed and the cells were analyzed using a suitable assay.” for “changes.”
(§3) In another example, normal (Genea016) and FSHD-affected (Genea049 and Genea050) cell lines were differentiated according to Example 1. A DNA methyltransferase inhibitor (Compound #1) (ASK10) or a histone methyltransferase inhibitor (Compound #2) (ASK19) was added for 24 hours either at the beginning of the myoblast stage (Group 1) or at the end of the myoblast stage (Group 2). Cells were further differentiated to myotubes and analyzed 7 days later at the end of the myotube stage (see FIG. 2). Effects on cell counts (FIGS. 11A and 11B) and MF20-positive myotubes (FIGS. 12A and 12B) were assessed.

DUX4-GFP reporter [4] = assay: Chemically induced DUX4-GFP reporter induction (ASK10 and analogs); assay type: cell-based, human
Excerpt: Cells were transduced with a lentivirus coding for a synthetic DUX4-responsive promoter driving a nuclear turboGFP reporter gene ([…] et al., 2015) and selected using G418 antibiotic (Thermo Fisher). Myogenic differentiation was induced using the Genea Biocells muscle differentiation protocol (Caron et al., 2016). […] Media was changed every other day for 10 days. Myogenic precursors were then re-seeded by treatment with Passaging Solution (Genea Biocells) followed by Neutralizing Solution (Genea Biocells), were pelleted, and were plated at 2500 cells/cm2 in Stage 2 Myoblast Medium (Genea Biocells). […] After treatment, confluent myoblasts were switched to Stage 3 Myotube Medium (Genea Biocells). Cells were imaged hourly for phase and DUX4-GFP reporter fluorescence with the Incucyte live cell imaging system (Essen Bioscience) and Incucyte analysis software reported GFP+ events/mm2. […] Nuclei were quantified using the In Cell 6000 imaging and analysis suite. The system as described herein can be used as a sensitive low-, medium- or high-throughput screening assay to identify compounds that suppress DUX4 following an experimental procedure as outlined in FIG. 19. […] Test compounds are added either at the beginning of differentiation stage 2 or stage 3 and may be present throughput the experiment.

[5] = test system: Genea049 reporter cell line; assay: Cell death / overall cell numbers by video microscopy; assay type: cell-based, human; conditions: 24 hours pulse at the beginning of the myoblast stage
Description: In another example, Genea049 reporter cell line was differentiated according to Example 1 and the compounds were added for 24 hours at the beginning of the myoblast stage. Cells were further differentiated to myotubes (see FIG. 2) and analyzed continuously by video fluorescence microscopy using an Incucyte Zoom instrument (Essen Bioscience).

DUX4-GFP reporter [6] = assay: Rescue of ASK10- / ASK10 analog-induced DUX4-GFP by ASK19 pre-treatment; assay type: cell-based, human
Description: Genea's FSHD-affected Gen049 human Embryonic Stem Cells (hESCs) were cultured on geltrex (Thermo Fisher) using the feeder-free mTeSR system (StemCell Technologies). Cells were transduced with a lentivirus coding for a synthetic DUX4-responsive promoter driving a nuclear turboGFP reporter gene (Rickard et al., 2015) and selected using G418 antibiotic (Thermo Fisher). Myogenic differentiation was induced using the Genea Biocells muscle differentiation protocol (Caron et al., 2016). Reporter stem cells were treated with Accutase (StemCell Technologies) and plated as single cells at 5200 cells/cm2, then changed to Stage 1 Myogenic Induction Medium (Genea Biocells). Media was changed every other day for 10 days. Myogenic precursors were then re-seeded by treatment with Passaging Solution (Genea Biocells) followed by Neutralizing Solution (Genea Biocells), were pelleted, and were plated at 2500 cells/cm2 in Stage 2 Myoblast Medium (Genea Biocells).
In rescue experiments, Stage 2 Day 1 cells were then treated with either 1 uM ASK19 or DMSO vehicle for 24 hours. Precursors were then converted to myoblasts by culture in Stage 2 Medium for 7 days with media changes every second day until confluence. Myoblasts were passaged and seeded at 9000 cells/cm2 in 96 well format, allowed to grow to confluence, and treated in Stage 2 Medium for indicated time (0-48 hours) with 0.01 uM-3 uM of ASK10, ASK10 analog, DMSO vehicle, or media only (FIGS. 15A-15B). After treatment, confluent myoblasts were switched to Stage 3 Myotube Medium (Genea Biocells). Cells were imaged hourly for phase and DUX4-GFP reporter fluorescence with the Incucyte live cell imaging system (Essen Bioscience) and Incucyte analysis software reported GFP+ events/mm2. After imaging, cells were fixed in 10% Formalin (Thermo Fisher) for 15 minutes and stained for 2 hours using PBS (Invitrogen) with 5% BSA (Thermo Fisher), 0.25% Triton-X (Thermo Fisher), and 1:5000 Hoechst (Thermo Fisher) DNA dye. Nuclei were quantified using the In Cell 6000 imaging and analysis suite.

[7] = test system: normal (Genea016) and FSHD-affected (Genea049 and Genea050) cell lines; assay: Timing of compound contact: MF20-positive myotubes; assay type: cell-based, human; conditions: 24 hours treatment, analyzed at the end of the myotube stage
Description: as §1, with “changes. After 4-7 days many multi-nucleated myotubes were observed and the cells were analyzed using a suitable assay.” for “changes.”
as §3

[8] = test system: DUX4 reporter in the FSHD-affected Genea049 reporter cell line; assay: DUX4 reporter, time-lapse video fluorescence microscopy; assay type: cell-based, human; conditions: added for 24 hours at the beginning of the myoblast stage; analyzed continuously
Description: (§4) Lentivirus constructs were used to stably integrate a DUX4 reporter into human embryonic stem cell lines (FIG. 5). Cells were plated in collagen I-coated 12-well plates (Corning BIOCOAT™-Cat #354500) in M2 hESC maintenance medium (Genea Biocells). Since cell lines grow at different rates and may optimally transduce at distinct cell densities, each line was plated at four different cell densities and transduced for 2 hours using a vector preparations diluted at 1:20 (50 ul/ml) in M2 medium containing 8 ug/ml polybrene. A pilot “kill curve” was established using the same non-transfected cell lines to help define the baseline antibiotic concentration required during the selection process. Based on the results, all transduced cells were selected with 300 ug/ml of G418 for at least 10 days. The antibiotic selected cells were further expanded in M2 (2× T175 flasks for each cell line) and samples were cryopreserved as stocks of 0.5 to 1×10^6 cells/vial.
In another example, experiments are set up according to Example 1 with FSHD-affected DUX4 reporter cells being cultured in collagen I-coated 96-well plates. […] The cells are continuously observed by time-lapse video microscopy (IncuCyte Zoom, Essen Bioscience) and the number of GFP-positive (DUX4-expressing) nuclei are detected and quantified throughout the culture period. […]

[9] = test system: Normal cell lines (Genea 002 and Genea 015) and an FSHD-affected cell line (Genea 096); assay: Phenotypic marker screen (Example 2): myogenesis, MF20 and myotube length; assay type: cell-based, human; conditions: compound added for 24 hours
Description: as §1
In one example, experiments are set up according to Example 1 with cells being cultured in collagen 1-coated optical bottom 96-well plates. […] High-content screening is performed to quantitatively measure the proportion of DUX4, Ki67 and MyoD-positive cells as well as myotube diameter and the number of nuclei per myotube.
as §2, with “Compounds were added for 24 hours either at the beginning of the myoblast stage or at the end of the myoblast stage.” left out

[10] = test system: DUX4 reporter in the FSHD-affected Genea049 reporter cell line; assay: DUX4 reporter, high-content imaging; assay type: cell-based, human; conditions: added for 24 hours at the end of the myoblast stage; analyzed 7 days later
Description: as §4
In another example, Genea049 reporter cell line was differentiated according to Example 1 and the compounds were added for 24 hours at the end of the myoblast stage. Cells were further differentiated to myotubes and analyzed 7 days later at the end of the myotube stage (see FIG. 2) by fixation, counterstaining nuclei with Hoechst and visualizing nuclei and the reporter by high-content imaging.

[11] = test system: myotubes from FSHD-affected cell lines; assay: Chaetocin toxicity, total nuclei count; assay type: cell-based, human; conditions: at 50-100 nM
Description: (§5) In myotubes from FSHD-affected cell lines DUX4 expression was observed by immunofluorescence staining using DUX4 E5-5 antibody, either spontaneously or by transfecting cells with a DUX4 expression vector (FIG. 3). In some cases, the expression of DUX4 in myogenic cells may be a rare event. Thus, to increase the assay window and sensitivity, chaetocin was used to increase the number of cells expressing DUX4 (FIG. 4A). […] In some examples, compounds may be screened in the presence of 50-200 nM chaetocin, a compound described to result in elevated levels of DUX4 expression in human myoblast cultures (FIG. 2).

DUX4 expression = assay: Chaetocin induction of DUX4 expression, immunofluorescence staining; assay type: cell-based, human; conditions: myotubes from FSHD-affected cell lines, DUX4 E5-5 antibody
Description: as §1, with “changes. After 4-7 days many multi-nucleated myotubes were observed and the cells were analyzed using a suitable assay.” for “changes.”
as §5

SMILES: Nc1ncn([C@H]2C[C@H](O)[C@@H](CO)O2)c(=O)n1 [ASK10, decitabine]
cytotoxicity [1]: did not display any noticeable cytotoxicity
toxicity (cell count) [2]: highly toxic at higher doses
toxicity to FSHD-affected cells ([2]; FSHD-affected cells (Genea 096)): less so
toxicity, normal versus FSHD-affected myoblasts ([3]; 24 hours treatment): much more toxic for normal myoblasts than for FSHD-affected myoblasts
toxicity (cell counts), FSHD ([3]; added at the end of the myoblast stage (Group 2), FSHD): not toxic
toxicity (cell counts), normal ([3]; added at the end of the myoblast stage (Group 2), normal): only mildly toxic
toxicity (cell counts) ([3]; added for 24 hours at the beginning of the myoblast stage (Group 1)): significant toxicity at higher doses
pEC50 (DUX4-GFP reporter [4]; Homo sapiens, DUX4-GFP cell number per well, read-out: EC50 at which the most significant DUX4 expression induction was detected): ≤ 6.00
DUX4 expression activation versus vehicle control (DUX4-GFP reporter [4]; about 48 hours post-exposure): 12-15 fold
time at which DUX4 induction plateaus (DUX4-GFP reporter [4]; post-exposure): about 120 hours
time of cell death after the compound had been removed [5]: 6 to 7 days

pEC50 (DUX4-GFP reporter [6]; ASK10- and ASK10-15-induced, tentative, read-out: EC50 of rescue of induced DUX4-GFP production): 6.30 to 6.60
SMILES: CC[C@H](C)n1cc(C)c2c(C(=O)NCc3c(C)cc(C)[nH]c3=O)cc(-c3ccc(N4CCNCC4)nc3)cc21 [ASK19, GSK126]
toxicity (cell count) [2]: not toxic
toxicity (cell counts) ([3]; any of the cell lines under any treatment regimen): not toxic
GFP+ events over time, ASK19/ASK10 curve (DUX4-GFP reporter [6]; ASK19 pre-treatment then ASK10, FIG. 18): extends along the bottom of the graph
GFP+ events over time, ASK19/ASK10-15 curve (DUX4-GFP reporter [6]; ASK19 pre-treatment then ASK10-15, FIG. 18): extends along the bottom of the graph
rescue of ASK10- and ASK10 analog-induced DUX4 activation (DUX4-GFP reporter [6]; pre-treatment with ASK19): rescues
MF20-positive myotubes (myogenesis) [7]: dose-dependent increase
DUX4-positive cells [8]: suppressed DUX4 expression and/or function
myogenesis, cells expressing MF20 ([9]; analyzed at the end of the myotube stage): more MF20-positive cells
myotube length ([9]; all cell lines tested): longer myotubes
DUX4-positive cells [10]: no effect

SMILES: CN1C(=O)[C@@]23C[C@]4([C@]56C[C@@]78SS[C@@](CO)(C(=O)N7[C@H]5Nc5ccccc56)N(C)C8=O)c5ccccc5N[C@@H]4N2C(=O)[C@]1(CO)SS3 [chaetocin]
toxicity [11]: only mild toxicity
chaetocin concentration found to induce DUX4 expression (DUX4 expression): 50 to 100 nM
